Measured values from patent publication USRE48335E1, “Polymyxin derivatives as antimicrobial compounds” (priority 2014, dated 2020).
Converted amounts (≈) assume the structure as drawn. Positions of bridges follow the written chain, without caps; N, C: chain ends. Non-standard residues stand in square brackets, D forms with d. Residues, ends and D or L forms follow the SMILES beside them. *: point of attachment. Phenylacetyl(3,4-Cl2) = O=C(Cc1ccc(Cl)c(Cl)c1)*; Phenylacetyl(4-Me) = Cc1ccc(CC(=O)*)cc1; X24 = Cc1ccc(C(=O)*)c(C)c1; X25 = Cc1cccc(C(=O)*)c1C; Dab = NCC[C@H](N)C(=O)O; X33 = Cc1cccc(C(=O)*)c1; X39 = O=C(Cc1ccccc1Cl)*; X43 = O=C(c1cccc(F)c1)*; Abu = CC[C@H](N)C(=O)O; Dap = NC[C@H](N)C(=O)O; X34 = Cc1ccccc1CC(=O)*; X35 = O=C(Cc1ccccc1F)*; X44 = O=C(c1ccccc1Cl)*; X27 = Cc1ccccc1C(=O)*; X40 = O=C(c1ccccc1F)*

Legend:
Acinetobacter baumannii = tested on: Acinetobacter baumannii
Procedure, shortened: (§1)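 Broth microdilution MICs following CLSI standards in cation-adjusted Mueller-Hinton broth. Lipopeptides tested as TFA salts; polymyxin B sulphate served as control.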

Enterobacter cloacae = tested on: Enterobacter cloacae
Procedure, shortened: as §1

Pseudomonas aeruginosa = tested on: Pseudomonas aeruginosa
Procedure, shortened: as §1

Compound	Minimum inhibitory concentration, Ab A ATCC 17978 (Acinetobacter baumannii) [µg/mL]	Minimum inhibitory concentration, Ab ATCC 19606 (Acinetobacter baumannii) [µg/mL]	Minimum inhibitory concentration, Ab FADDI-AB034 (Acinetobacter baumannii) [µg/mL]	Minimum inhibitory concentration, Ec FADDI-EC001 (Enterobacter cloacae) [µg/mL]	Minimum inhibitory concentration, Ec FADDI-EC003 (Enterobacter cloacae) [µg/mL]	Minimum inhibitory concentration, Ec FADDI-EC006 (Enterobacter cloacae) [µg/mL]	Minimum inhibitory concentration, Pa ATCC 27853 (Pseudomonas aeruginosa) [µg/mL]	Minimum inhibitory concentration, Pa FADDI-PA022 (Pseudomonas aeruginosa) [µg/mL]	Minimum inhibitory concentration, Pa FADDI-PA025 (Pseudomonas aeruginosa) [µg/mL]
CC[C@@H]1NC(=O)[C@@H](CC(C)C)NC(=O)[C@H](CCN)NC(=O)[C@@H](NC(=O)[C@H](CN)NC(=O)[C@@H](NC(=O)[C@H](CCN)NC(=O)c2ccccc2Cl)[C@@H](C)O)CCNC(=O)[C@H]([C@@H](C)O)NC(=O)[C@H](CCN)NC(=O)[C@H](CCN)NC1=O [Compound 72] (X44-[Dab]T[Dap][Dab][Dab][dL][Abu][Dab][Dab]T; lactam 4-C)	4 (≈ 3.55 µM)	8 (≈ 7.11 µM)	4 (≈ 3.55 µM)	0.5 (≈ 0.444 µM)	0.25 (≈ 0.222 µM)	0.5 (≈ 0.444 µM)	0.5 (≈ 0.444 µM)	0.5 (≈ 0.444 µM)	4 (≈ 3.55 µM)
CC[C@@H]1NC(=O)[C@@H](CC(C)C)NC(=O)[C@H](CCN)NC(=O)[C@@H](NC(=O)[C@H](CN)NC(=O)[C@@H](NC(=O)[C@H](CCN)NC(=O)c2ccccc2F)[C@@H](C)O)CCNC(=O)[C@H]([C@@H](C)O)NC(=O)[C@H](CCN)NC(=O)[C@H](CCN)NC1=O [Compound 73] (X40-[Dab]T[Dap][Dab][Dab][dL][Abu][Dab][Dab]T; lactam 4-C)	4 (≈ 3.61 µM)	8 (≈ 7.21 µM)	4 (≈ 3.61 µM)	0.25 (≈ 0.225 µM)	0.25 (≈ 0.225 µM)	1 (≈ 0.901 µM)	0.5 (≈ 0.451 µM)	1 (≈ 0.901 µM)	4 (≈ 3.61 µM)
CC[C@@H]1NC(=O)[C@@H](CC(C)C)NC(=O)[C@H](CCN)NC(=O)[C@@H](NC(=O)[C@H](CN)NC(=O)[C@@H](NC(=O)[C@H](CCN)NC(=O)c2ccccc2C)[C@@H](C)O)CCNC(=O)[C@H]([C@@H](C)O)NC(=O)[C@H](CCN)NC(=O)[C@H](CCN)NC1=O [Compound 75] (X27-[Dab]T[Dap][Dab][Dab][dL][Abu][Dab][Dab]T; lactam 4-C)	1 (≈ 0.905 µM)	1 (≈ 0.905 µM)	1 (≈ 0.905 µM)	0.25 (≈ 0.226 µM)	0.25 (≈ 0.226 µM)	0.5 (≈ 0.452 µM)	0.5 (≈ 0.452 µM)	1 (≈ 0.905 µM)	2 (≈ 1.81 µM)
CC[C@@H]1NC(=O)[C@@H](CC(C)C)NC(=O)[C@H](CCN)NC(=O)[C@@H](NC(=O)[C@H](CN)NC(=O)[C@@H](NC(=O)[C@H](CCN)NC(=O)Cc2ccccc2C)[C@@H](C)O)CCNC(=O)[C@H]([C@@H](C)O)NC(=O)[C@H](CCN)NC(=O)[C@H](CCN)NC1=O [Compound 76] (X34-[Dab]T[Dap][Dab][Dab][dL][Abu][Dab][Dab]T; lactam 4-C)	1 (≈ 0.893 µM)	2 (≈ 1.79 µM)	1 (≈ 0.893 µM)	0.25 (≈ 0.223 µM)	0.25 (≈ 0.223 µM)	0.5 (≈ 0.447 µM)	0.5 (≈ 0.447 µM)	1 (≈ 0.893 µM)	4 (≈ 3.57 µM)
CC[C@@H]1NC(=O)[C@@H](CC(C)C)NC(=O)[C@H](CCN)NC(=O)[C@@H](NC(=O)[C@H](CN)NC(=O)[C@@H](NC(=O)[C@H](CCN)NC(=O)Cc2ccc(C)cc2)[C@@H](C)O)CCNC(=O)[C@H]([C@@H](C)O)NC(=O)[C@H](CCN)NC(=O)[C@H](CCN)NC1=O [Compound 80] ({Phenylacetyl(4-Me)}-[Dab]T[Dap][Dab][Dab][dL][Abu][Dab][Dab]T; lactam 4-C)	1 (≈ 0.893 µM)	4 (≈ 3.57 µM)	2 (≈ 1.79 µM)	<0.125	0.25 (≈ 0.223 µM)	4 (≈ 3.57 µM)	0.5 (≈ 0.447 µM)	1 (≈ 0.893 µM)	2 (≈ 1.79 µM)
CC[C@@H]1NC(=O)[C@@H](CC(C)C)NC(=O)[C@H](CCN)NC(=O)[C@@H](NC(=O)[C@H](CN)NC(=O)[C@@H](NC(=O)[C@H](CCN)NC(=O)Cc2ccc(Cl)c(Cl)c2)[C@@H](C)O)CCNC(=O)[C@H]([C@@H](C)O)NC(=O)[C@H](CCN)NC(=O)[C@H](CCN)NC1=O [Compound 81] ({Phenylacetyl(3,4-Cl2)}-[Dab]T[Dap][Dab][Dab][dL][Abu][Dab][Dab]T; lactam 4-C)	0.5 (≈ 0.426 µM)	1 (≈ 0.852 µM)	0.25 (≈ 0.213 µM)	0.25 (≈ 0.213 µM)	<0.125	0.25 (≈ 0.213 µM)	2 (≈ 1.7 µM)	4 (≈ 3.41 µM)	1 (≈ 0.852 µM)
CC[C@@H]1NC(=O)[C@@H](CC(C)C)NC(=O)[C@H](CCN)NC(=O)[C@@H](NC(=O)[C@H](CN)NC(=O)[C@@H](NC(=O)[C@H](CCN)NC(=O)Cc2ccccc2Cl)[C@@H](C)O)CCNC(=O)[C@H]([C@@H](C)O)NC(=O)[C@H](CCN)NC(=O)[C@H](CCN)NC1=O [Compound 84] (X39-[Dab]T[Dap][Dab][Dab][dL][Abu][Dab][Dab]T; lactam 4-C)	2 (≈ 1.75 µM)	8 (≈ 7.02 µM)	2 (≈ 1.75 µM)	<0.125	0.25 (≈ 0.219 µM)	0.5 (≈ 0.439 µM)	0.5 (≈ 0.439 µM)	2 (≈ 1.75 µM)	2 (≈ 1.75 µM)
CC[C@@H]1NC(=O)[C@@H](CC(C)C)NC(=O)[C@H](CCN)NC(=O)[C@@H](NC(=O)[C@H](CN)NC(=O)[C@@H](NC(=O)[C@H](CCN)NC(=O)Cc2ccccc2F)[C@@H](C)O)CCNC(=O)[C@H]([C@@H](C)O)NC(=O)[C@H](CCN)NC(=O)[C@H](CCN)NC1=O [Compound 85] (X35-[Dab]T[Dap][Dab][Dab][dL][Abu][Dab][Dab]T; lactam 4-C)	2 (≈ 1.78 µM)	4 (≈ 3.56 µM)	2 (≈ 1.78 µM)	0.5 (≈ 0.445 µM)	1 (≈ 0.89 µM)	1 (≈ 0.89 µM)	0.5 (≈ 0.445 µM)	2 (≈ 1.78 µM)	2 (≈ 1.78 µM)
CC[C@@H]1NC(=O)[C@@H](CC(C)C)NC(=O)[C@H](CCN)NC(=O)[C@@H](NC(=O)[C@H](CN)NC(=O)[C@@H](NC(=O)[C@H](CCN)NC(=O)c2cccc(F)c2)[C@@H](C)O)CCNC(=O)[C@H]([C@@H](C)O)NC(=O)[C@H](CCN)NC(=O)[C@H](CCN)NC1=O [Compound 86] (X43-[Dab]T[Dap][Dab][Dab][dL][Abu][Dab][Dab]T; lactam 4-C)	2 (≈ 1.8 µM)	4 (≈ 3.61 µM)	1 (≈ 0.901 µM)	1 (≈ 0.901 µM)	1 (≈ 0.901 µM)	1 (≈ 0.901 µM)	0.5 (≈ 0.451 µM)	1 (≈ 0.901 µM)	2 (≈ 1.8 µM)
CC[C@@H]1NC(=O)[C@@H](CC(C)C)NC(=O)[C@H](CCN)NC(=O)[C@@H](NC(=O)[C@H](CN)NC(=O)[C@@H](NC(=O)[C@H](CCN)NC(=O)c2cccc(C)c2)[C@@H](C)O)CCNC(=O)[C@H]([C@@H](C)O)NC(=O)[C@H](CCN)NC(=O)[C@H](CCN)NC1=O [Compound 87] (X33-[Dab]T[Dap][Dab][Dab][dL][Abu][Dab][Dab]T; lactam 4-C)	1 (≈ 0.905 µM)	2 (≈ 1.81 µM)	2 (≈ 1.81 µM)	2 (≈ 1.81 µM)	1 (≈ 0.905 µM)	2 (≈ 1.81 µM)	0.5 (≈ 0.452 µM)	1 (≈ 0.905 µM)	2 (≈ 1.81 µM)
CC[C@@H]1NC(=O)[C@@H](CC(C)C)NC(=O)[C@H](CCN)NC(=O)[C@@H](NC(=O)[C@H](CN)NC(=O)[C@@H](NC(=O)[C@H](CCN)NC(=O)c2ccc(C)cc2C)[C@@H](C)O)CCNC(=O)[C@H]([C@@H](C)O)NC(=O)[C@H](CCN)NC(=O)[C@H](CCN)NC1=O [Compound 89] (X24-[Dab]T[Dap][Dab][Dab][dL][Abu][Dab][Dab]T; lactam 4-C)	1 (≈ 0.893 µM)	4 (≈ 3.57 µM)	1 (≈ 0.893 µM)	<0.125	<0.125	2 (≈ 1.79 µM)	0.5 (≈ 0.447 µM)	1 (≈ 0.893 µM)	4 (≈ 3.57 µM)
CC[C@@H]1NC(=O)[C@@H](CC(C)C)NC(=O)[C@H](CCN)NC(=O)[C@@H](NC(=O)[C@H](CN)NC(=O)[C@@H](NC(=O)[C@H](CCN)NC(=O)c2cccc(C)c2C)[C@@H](C)O)CCNC(=O)[C@H]([C@@H](C)O)NC(=O)[C@H](CCN)NC(=O)[C@H](CCN)NC1=O [Compound 91] (X25-[Dab]T[Dap][Dab][Dab][dL][Abu][Dab][Dab]T; lactam 4-C)	1 (≈ 0.893 µM)	4 (≈ 3.57 µM)	2 (≈ 1.79 µM)	<0.125	<0.125	0.5 (≈ 0.447 µM)	0.5 (≈ 0.447 µM)	2 (≈ 1.79 µM)	4 (≈ 3.57 µM)
